Results published in US6610310B2, “Polyanionic polymers as adjuvants for mucosal immunization” (priority 1996, dated 2003).

Key:
Set-up in all cases: species or system mice
Settings in all cases: mouse, in vivo
[1] = tested on: influenza virus, strain MRC-11
[2] = tested on: influenza virus strain A/Texas
[3] = tested on: Newcastle Disease Virus (NDV) strain Lasota

Cholera toxin subunit B [CTB]
anti-NDV Ig-producing cells/10^6 cells 3 weeks following immunization, mean; IgA in the lungs [1]: 82 cells/10^6 cells
specific Ig-producing cells/10^6 cells 3 weeks following first immunization, mean; IgA in the lungs [2]: 961 cells/10^6 cells
anti-NDV Ig-producing cells/10^6 cells 3 weeks following immunization, mean; IgA in the spleen [3]: 84 cells/10^6 cells
anti-NDV Ig-producing cells/10^6 cells 3 weeks following immunization, mean; IgG in the lungs [3]: 10 cells/10^6 cells
anti-NDV Ig-producing cells/10^6 cells 3 weeks following immunization, mean; IgG in the spleen [3]: 8 cells/10^6 cells
anti-NDV Ig-producing cells/10^6 cells 6 weeks following immunization, mean; IgA in the lungs [3]: 23 cells/10^6 cells
